Measured values from patent US20260224692A1, “T CELL-DIRECTED ANTI-AGING AND ANTI-CANCER VACCINES AGAINST COMMENSAL CYTOMEGALOVIRUS” (The General Hospital Corporation, priority 2023, published 2026).

Assays:
skin CD4+ T cells = test: Flow cytometry analysis of perforin and CD107a expression on CD4+ T cells exposed to SCFA; format: cell-based, human; conditions: 5 mM SCFA, 24 h
Experimental: (§1) FIGS. 15A-15B. Butyrate and pentanoate boost CD4 CTL-mediated clearance of senescent cells. (A) The frequency of cleaved caspase-3^+ senescent fibroblasts after co-culture for 6 h with skin T cells, which are preincubated with each 5 mM SCFAs for 2 days, using a skin T cell to fibroblast ratio of 50:1. All data are expressed as the mean±SD. n=3 individuals. (B) The effect of each SCFA (5 mM) treatment on the cytotoxicity of CD4^+ T cells. Flow cytometry analysis of perforin and CD107a expression on CD4^+ T cells exposed to each SCFA for 24 h. n=2 individuals. All data are expressed as the mean±SD.
Cells were washed once with PBS, including 5% newborn calf serum (Thermo Fisher Scientific, 26010074) and 0.01% sodium azide (Sigma-Aldrich, S2002-100G), and stained with antibodies (Tables 3B and 3B) on ice for 30 min followed by secondary antibody if needed (Table 3A). Following the surface marker staining, cells were fixed and permeabilized for intracellular staining using True-Nuclear Transcription Factor Buffer Set (BioLegend, 424401). Permeabilized cells were stained with antibodies (Table 3A) overnight at 4° C. […] Data were analyzed using FlowJo software (BD Life Sciences, Franklin Lakes, NJ). Relative fluorescence intensity was calculated by subtracting the median fluorescence intensity of isotype control from the median fluorescence intensity of stained samples.

senescent fibroblasts = test: SCFA-mediated CD4+ T cell stimulation assay: T cell-mediated cytotoxicity against senescent fibroblasts; format: cell-based, human; conditions: T cells exposed to 5 mM SCFA for 2 days; 6 h co-culture; T cell to fibroblast ratio 50:1
Experimental: as §1, with “Butyrate and pentanoate boost CD4 CTL-mediated clearance of senescent cells.” left out
T cells were seeded at a density of 2.5×10^5 cells into 60 mm dish, and were added to each 5 mM SCFAs, including butylate (EMD Millipore), pentanoate (Ambeed Inc), or propionate (Sigma-Aldrich) with 20 ng/ml human IL-2 recombinant and 20 ng/ml human IL-15 recombinant for 2 days. Following 2 days of co-incubation, T cells were subsequently added to each senescent fibroblasts-placed wells and were cultured in T cell medium with 20 ng/ml human IL-2 recombinant and 20 ng/ml human IL-15 recombinant in 24 well plate (Ratios of 50:1 T cells-to fibroblasts respectively). Following 6 hr of co-incubation, remaining fibroblasts were stained with vimentin and cleaved caspase-3 to examine the frequency of T cell-mediated cytotoxicity against senescent fibroblasts. […]

human skin CD4 CTLs = test: Trans-well migration assay; format: cell-based; conditions: recombinant human CXCL9 50 nM (585 ng/mL) in bottom well, 60 min, vs PBS carrier
Excerpt: FIGS. 6A-6E. CXCL9 promotes the migration of human skin-resident CD4 CTLs. […] The percent cells in each gate are shown on the flow-cytometry plots. Zombie fixable viability dye (Viability) marks dead cells. (B) Representative flow-cytometry plots of CXCR3 expression on CD4^+ and CD8^+ T cells in the human skin. Numbers on the flow-cytometry plots represent the percent cells within each gate. (C) The experimental scheme for trans-well migration assay using the immune cells isolated from the human skin. (D and E) The effect of CXCL9 recombinant protein (585 ng/mL) treatment on the migration of human skin CD4 CTLs (D) and CD8^+ T cells (E). Skin samples from two independent donors were used to isolate skin-resident immune cells (female skin donors). Bar graphs show mean±SD, Mann-Whitney U test.
Skin-isolated cells were seeded at a density of 1.5×10^4 cells/well into the top inserts of the 24-well trans-well plate (Corning, 07-200-149). The pore size is 5 μm. RPMI containing recombinant human CXCL9 (PeproTech, 300-26) or PBS (carrier only) at the concentration of 50 nM was added into the bottom well. Skin-isolated cells were incubated for 60 min. Then, cells were counted and stained as described in the flow cytometry section.

Molecule | expression of perforin+ and CD107a+ on CD4+ T cells (cytotoxicity capacity) (skin CD4+ T cells) | apoptosis (cleaved caspase-3+) in senescent fibroblasts by SCFA-exposed skin T cells (senescent fibroblasts) | migration of human skin CD4 CTLs (human skin CD4 CTLs)
CCCC(=O)O [butyrate] | increase | highly induced apoptosis | 
CCCCC(=O)O [pentanoate] | increase | highly induced apoptosis | 
CXCL9: recombinant human CXCL9 chemokine (PeproTech, 300-26), ligand of CXCR3 (protein, UniProt Q07325 23-125, looked up) C-X-C motif chemokine 9: TPVVRKGRCSCISTNQGTIHLQSLKDLKQFAPSPSCEKIEIIATLKNGVQTCLNPDSADVKELIKKWEKQVSQKKKQKNGKKHQKKKVLKVRKSQRSRQKKTT |  |  | significantly induced the migration of CD4 CTLs
